Experimental data published in patent US10933053B2, “Treating infections with ceftolozane/tazobactam in subjects having impaired renal function” (MERCK SHARP & DOHME CORP., priority 2013, dated 2021).

Experiment: clinical
Settings: both, human, in vivo; for Vd: Vss
Procedure: This was a Phase 1, multicenter, prospective, open-label study of 750 mg ceftolozane/tazobactam (as CXA-201) administered IV in male and female adult subjects with severe renal impairment (estimated CLCR<30 mL/min) and subjects with end-stage renal disease (ESRD) on hemodialysis (HD). The primary objective of the study was to determine the PK profile of ceftolozane/tazobactam in subjects with severe renal impairment and subjects with ESRD on HD and to determine the effect of HD on the clearance of ceftolozane/tazobactam.
Subjects with severe renal impairment received a single IV 1-hour infusion of 750 mg ceftolozane/tazobactam on Day 1. […] Subjects in this cohort received an IV dose of 750 mg ceftolozane/tazobactam as a 1 hour infusion immediately after their first HD session on Day 1 (post dialysis, approximately 72 hours prior to the next HD session) and a second dose of ceftolozane/tazobactam approximately 2 hours before their second HD session on Day 4 of the study. Infusion of ceftolozane/tazobactam was completed approximately 1 hour before the start of HD.
Subjects in both cohorts had urine (if not anuric) and plasma samples collected for determination of levels of ceftolozane, tazobactam and the M1 metabolite of tazobactam; subjects in the ESRD on HD cohort also had dialysate fluid samples collected for PK assessment. Plasma, urine, and dialysate levels of ceftolozane, tazobactam, and its metabolite M1 collected over a prespecified interval were determined by LC/MS/MS assay.
All subjects underwent hemodialysis for 3 to 4 hours using a high-flux membrane (either 1.4, 1.8, or 1.9 m^2) on Days 1, 4, and 6 as scheduled. Average blood flow rate was 264 to 600 mL/min and average dialysis flow rate was either 600 or 800 mL/min for all subjects with ESRD.
All cohorts received ceftolozane/tazobactam as an intravenous infusion over 1 h. The normal, mild, and moderate renal impairment cohorts received a single dose of ceftolozane/tazobactam 1,000 mg/500 mg; the severe renal impairment cohort received a single dose of ceftolozane/tazobactam 500 mg/250 mg; the ESRD cohort received a dose of ceftolozane/tazobactam 500 mg/250 mg initiated at the end of HD on day 1 and another dose initiated 2 h before HD on day 4. Subjects with ESRD underwent HD for 3 to 4 h using a high-flux membrane as scheduled; average dialysis flow rate was 600 to 800 ml/min. Revaclear hemodialyzers (Gambro, Stockholm, Sweden) were used in 5 subjects (ultrafiltration coefficient 50 to 60 ml/h/mmHg, high flux membrane of 1.4 to 1.8 m^2) and a CT 190G hemodialyzers (Baxter Healthcare, McGaw Park, Ill.) was used in 1 subject (ultrafiltration coefficient 36 ml/h/mmHg, high flux membrane of 1.9 m^2). The average blood flow rate was 400 to 600 ml/min with the exception of one subject with rates between 264 and 400 ml/min.
Plasma concentrations of ceftolozane and tazobactam were measured prior to, during, and following administration of ceftolozane/tazobactam. Blood samples were collected 30 min prior to administration, at the end of administration and at 5, 15, and 30 min and 1, 2, 3, 5, 7, 9, 11, 15, 25, and 35 h after completion of ceftolozane/tazobactam administration in the normal, mild, and moderate renal impairment cohorts. Severe renal impairment and ESRD cohorts off HD had samples taken 30 min prior to administration and at 0.5, 1, 1.5, 2, 3, 6, 9, 12, 24, 36, and 48 h after the start of administration. On the day of and following HD, the subjects with ESRD had samples taken 30 min prior to administration and at 0.5, 1, 1.5, 2, 3, 4, 5, 6, 9, 12, 24, 36, and 44 h after the start of the administration. The entire dialysate was collected at each of the following intervals: 0 to 1, 1 to 2, 2 to 3, and 3 h to the end of dialysis. Urine for PK analysis was obtained in the normal, mild, and moderate cohorts at 0 to 2, 2 to 4, 4 to 8, 8 to 12, 12 to 24, and 24 to 36 h after the start of ceftolozane/tazobactam administration.

SMILES	AUC	AUC48h Ratio (Day 3:1), median (range)	CLss	Change in Concentration	Clast	Clast lower than Cmax	Concentration after HD	Concentration before HD	Half-Life, median (range)	Percent Removed	Percent Removed, median (range)	average extraction ratio during HD	median Cmax higher vs normal renal function, dose normalized	rebound peak plasma concentration after HD, of the original Cmax	reduction in overall exposure	AUC(0-inf) (AUC0-∞)	AUC(0-inf) (AUC0-∞, median (range))	clearance (CL, median (range))	Cmax	Cmax (median (range))	further results
Cn1c(N)c(NC(=O)NCCN)c[n+]1CC1=C(C(=O)O)N2C(=O)[C@@H](NC(=O)/C(=N\OC(C)(C)C(=O)O)c3nsc(N)n3)[C@H]2SC1 [Ceftolozane, (6R,7R)-3-[(5-amino-4-{[(2-aminoethyl)carbamoyl]amino}-1-methyl-1H-pyrazol-2-ium-2-yl)methyl]-7-({(2Z)-2-(5-amino-1,2,4-thiadiazol-3-yl)-2-[(1-carboxy-1-methylethoxy)imino]acetyl}amino)-8-oxo-5-thia-1-azabicyclo[4.2.0]oct-2-ene-2-carboxylate]	87 µg·h/mL	0.34 (0.26-0.48)	5.01 (4.11-10.7) L/hr	32.3 (10.2-44.8)	2.88 (1.23-4.48) μg/mL	approximately 14 fold	2.9 (1.2-4.5) μg/mL	34.4 (13.2-49.3) μg/mL	43.2 h	91.5 (72.3-96.3) %	66 (52-74)	46%	1.2 fold	approximately 17%	approximately 66%	99.8 µg·h/mL	1630 µg·h/mL	5 mL/min	41100 ng/mL	44200 ng/mL	Cmax, mean (CV %): 40.9 (35) μg/mL; tmax, median (minimum, maximum): 1.0 (1.0, 1.0) h; AUC(0-t) (AUC0-t): 97.1 µg·h/mL; AUC(0-inf) (AUC∞, mean (CV %)): 1680 µg·h/mL; clearance (CL, mean (CV %)): 6.67 mL/min; half-life (Half-Life): 1.13 h; half-life (Half-Life, median (range)): 40.5 h; Vd: 7.26 L; Vd (mean (CV %)): 19.2 L; Vd (median (range)): 17.9 L; clearance (median dialysis clearance (CLD)): 95.8 mL/min; half-life (t1/2 during the HD period (median)): 1.13 h
C[C@]1(Cn2ccnn2)[C@H](C(=O)O)N2C(=O)C[C@H]2S1(=O)=O [Tazobactam, tazobactam]	26.4 µg·h/mL	0.44 (0.26-0.53)	8.53 (5.53-15.9) L/hr	10.5 (3.6-17.6)	0.46 (0.13-1.14) μg/mL	~32 fold	0.5 (0.1-1.1) μg/mL	10.8 (3.9-18.7) μg/mL	5.0 (1.9-8.5) hr	95.3 (83.8-98.6) %	56 (47-74)	53%	2.4 fold	~6%	~56%	29.4 µg·h/mL	109 µg·h/mL	40 mL/min	14900 ng/mL	20200 ng/mL	Tmax: 1.00 (1.00-1.00) hr; Tmax, median (range): 1.0 (1.0-1.0) hr; median dialysis clearance (CLD): 4.39 (1.36-6.29) L/hr; removed by dialysis: ~56%; t1/2 during the HD period (median): 0.91 h; half-life (Half-Life, median (range)): 4.21 h; Vd: 10.4 L; Vd (median (range)): 15.2 L
